Each structure is given as a SMILES string. Some results are limits rather than exact numbers.

Holding throughout (type): biochemical
One assay has as its target JMJD2C (Homo sapiens (Human), UniProt Q9H3R0). The experiment in a line: JMJD2C in vitro enzyme inhibition assay (TR-FRET).
For a further assay, the target named is Jarid1A (Homo sapiens (Human), UniProt P29375). The experiment in a line: Jarid1A in vitro enzyme inhibition assay (TR-FRET). From the text: The enzymatic assay of Jarid1A activity is based upon Time Resolved-Fluorescence Resonance Energy Transfer (TR-FRET) detection.
Background: In TR-FRET formats the signal depends on donor and acceptor labels being close together.

A further assay addresses Jarid1B (Homo sapiens (Human), UniProt Q9UGL1). Kind of assay: Jarid1B in vitro enzyme inhibition assay (TR-FRET).

Chain of Jarid1A (P29375 1-1090): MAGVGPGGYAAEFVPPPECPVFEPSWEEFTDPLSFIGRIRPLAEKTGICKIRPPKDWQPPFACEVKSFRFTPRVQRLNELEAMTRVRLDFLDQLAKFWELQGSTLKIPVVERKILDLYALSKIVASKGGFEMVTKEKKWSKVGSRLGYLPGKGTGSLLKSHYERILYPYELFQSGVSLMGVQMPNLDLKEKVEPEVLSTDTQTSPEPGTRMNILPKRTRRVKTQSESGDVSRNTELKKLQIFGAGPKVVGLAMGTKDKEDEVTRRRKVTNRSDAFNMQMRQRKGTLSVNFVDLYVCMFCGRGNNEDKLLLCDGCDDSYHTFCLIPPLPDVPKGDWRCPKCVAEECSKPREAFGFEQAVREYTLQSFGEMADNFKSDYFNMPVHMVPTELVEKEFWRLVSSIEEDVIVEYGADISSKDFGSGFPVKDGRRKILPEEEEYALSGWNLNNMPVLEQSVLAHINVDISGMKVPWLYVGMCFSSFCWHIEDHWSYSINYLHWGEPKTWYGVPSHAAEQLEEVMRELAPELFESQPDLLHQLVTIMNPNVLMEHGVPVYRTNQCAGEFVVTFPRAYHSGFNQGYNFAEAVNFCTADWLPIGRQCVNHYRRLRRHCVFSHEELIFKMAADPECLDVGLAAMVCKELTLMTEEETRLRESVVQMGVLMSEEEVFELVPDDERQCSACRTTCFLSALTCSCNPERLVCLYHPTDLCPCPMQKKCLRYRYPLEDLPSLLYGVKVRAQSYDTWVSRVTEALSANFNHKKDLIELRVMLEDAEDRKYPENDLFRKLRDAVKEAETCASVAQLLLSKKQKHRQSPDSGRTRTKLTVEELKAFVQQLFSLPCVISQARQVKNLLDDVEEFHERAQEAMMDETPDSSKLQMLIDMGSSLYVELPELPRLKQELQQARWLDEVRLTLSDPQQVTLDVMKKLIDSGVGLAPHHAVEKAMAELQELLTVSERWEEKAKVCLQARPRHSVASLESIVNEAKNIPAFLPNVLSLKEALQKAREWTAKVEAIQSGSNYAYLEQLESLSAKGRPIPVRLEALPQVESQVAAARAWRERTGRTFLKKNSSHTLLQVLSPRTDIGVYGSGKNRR
Chain of Jarid1B (Q9UGL1 2-751): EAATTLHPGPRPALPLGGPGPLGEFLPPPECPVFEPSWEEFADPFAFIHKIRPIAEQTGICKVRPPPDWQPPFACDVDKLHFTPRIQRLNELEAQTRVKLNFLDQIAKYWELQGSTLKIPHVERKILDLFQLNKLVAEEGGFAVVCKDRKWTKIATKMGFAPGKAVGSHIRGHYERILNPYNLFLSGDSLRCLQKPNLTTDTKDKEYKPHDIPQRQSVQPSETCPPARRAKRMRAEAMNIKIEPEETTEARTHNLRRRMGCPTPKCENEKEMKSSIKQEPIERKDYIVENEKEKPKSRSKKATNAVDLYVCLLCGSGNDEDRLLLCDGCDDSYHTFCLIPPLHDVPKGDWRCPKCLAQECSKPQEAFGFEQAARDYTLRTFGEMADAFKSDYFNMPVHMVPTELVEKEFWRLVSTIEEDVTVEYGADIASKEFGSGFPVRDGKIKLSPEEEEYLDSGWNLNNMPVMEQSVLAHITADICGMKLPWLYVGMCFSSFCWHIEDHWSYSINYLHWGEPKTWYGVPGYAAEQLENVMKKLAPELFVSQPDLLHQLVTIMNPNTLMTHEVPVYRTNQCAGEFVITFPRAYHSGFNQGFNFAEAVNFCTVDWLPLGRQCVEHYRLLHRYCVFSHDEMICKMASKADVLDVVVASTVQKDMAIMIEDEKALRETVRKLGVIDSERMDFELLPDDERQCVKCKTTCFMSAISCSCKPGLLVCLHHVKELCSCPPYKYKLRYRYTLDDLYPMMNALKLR
Chain of JMJD2C (Q9H3R0 2-372): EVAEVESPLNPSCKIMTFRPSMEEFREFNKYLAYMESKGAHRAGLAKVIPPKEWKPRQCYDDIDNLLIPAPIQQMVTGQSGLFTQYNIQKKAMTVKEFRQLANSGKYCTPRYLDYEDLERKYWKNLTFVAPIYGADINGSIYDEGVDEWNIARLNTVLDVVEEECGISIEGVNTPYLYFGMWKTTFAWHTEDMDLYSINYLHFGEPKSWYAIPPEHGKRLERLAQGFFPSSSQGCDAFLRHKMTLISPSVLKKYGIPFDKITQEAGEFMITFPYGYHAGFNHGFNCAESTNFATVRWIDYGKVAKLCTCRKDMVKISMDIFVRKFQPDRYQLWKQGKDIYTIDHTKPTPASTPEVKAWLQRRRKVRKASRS

For the compound `O=C(O)c1ccnc(-n2nccc2-c2ccc3cn[nH]c3c2)c1` [Example 24, 2-[5-(1H-indazol-6-yl)-1H-pyrazol-1-yl]pyridine-4-carboxylic acid], the half-inhibitory concentration (IC50) was 1000 to 10000 nM at JMJD2C, 100 to 1000 nM against Jarid1A and 100 to 1000 nM at Jarid1B.
In the case of `COc1cc(C)nn1-c1cc(C(=O)O)ccn1` [Example 37, 2-(5-methoxy-3-methyl-1H-pyrazol-1-yl)isonicotinic acid], the IC50 at JMJD2C, at Jarid1A and against Jarid1B was 1000 to 10000 nM in each case.
With `CCc1cc(C)ccc1COc1ccnn1-c1cc(C(=O)O)ccn1` [Example 135, 2-[5-[(2-ethyl-4-methylphenyl)methoxy]pyrazol-1-yl]pyridine-4-carboxylic acid], the figures for the IC50 against JMJD2C, on Jarid1A and against Jarid1B were 1000 to 10000 nM, 100 to 1000 nM and 100 to 1000 nM, respectively.
As for `Cc1ccc(-c2ccnn2-c2cc(C(=O)O)ccn2)cc1O` [Example 21, 2-(5-(3-hydroxy-4-methylphenyl)-1H-pyrazol-1-yl)isonicotinic acid], the concentration for half-maximal inhibition (IC50) is 100 to 1000 nM against JMJD2C, less than 100 nM against Jarid1A and less than 100 nM at Jarid1B.
As to `O=C(O)c1ccnc(-n2nccc2OCC2CCC(F)(F)CC2)c1` [Example 71, 2-{5-[(4,4-difluorocyclohexyl)methoxy]-1H-pyrazol-1-yl}pyridine-4-carboxylic acid], the IC50 is 100 to 1000 nM at JMJD2C, less than 100 nM against Jarid1A and less than 100 nM against Jarid1B.
As for `Cc1cnn(-c2cc(C(=O)O)ccn2)c1OCc1ccc(F)cc1` [Example 84, 2-[5-[(4-fluorophenyl)methoxy]-4-methylpyrazol-1-yl]pyridine-4-carboxylic acid], the figures for the half-inhibitory concentration (IC50) against JMJD2C, on Jarid1A and against Jarid1B were 100 to 1000 nM, less than 100 nM and less than 100 nM, respectively.
Regarding `Cc1ccc(COc2ccnn2-c2cc(C(=O)O)ccn2)c(F)c1` [Example 131, 2-[5-[(2-fluoro-4-methylphenyl)methoxy]pyrazol-1-yl]pyridine-4-carboxylic acid], the IC50 was 100 to 1000 nM on JMJD2C, less than 100 nM on Jarid1A and less than 100 nM against Jarid1B.
Turning to `O=C(O)c1ccnc(-n2nccc2OCc2ccc(Cl)c(OCC(F)(F)F)c2)c1` [Example 141, 2-[5-[[4-chloro-3-(2,2,2-trifluoroethoxy)phenyl]methoxy]pyrazol-1-yl]pyridine-4-carboxylic acid], the IC50 against JMJD2C is 100 to 1000 nM; at Jarid1A, less than 100 nM; against Jarid1B, less than 100 nM.
Regarding `O=C(O)c1ccnc(-n2nccc2OCc2ccc(Cl)cc2CCc2ccc(F)cc2)c1` [Example 122, 2-[5-[[4-chloro-2-[2-(4-fluorophenyl)ethyl]phenyl]methoxy]pyrazol-1-yl]pyridine-4-carboxylic acid], the IC50 against JMJD2C lay in the range of 1000 to 10000 nM; on Jarid1A, 100 to 1000 nM; against Jarid1B it was 100 to 1000 nM.
In the case of `CCc1ccc(COc2ccnn2-c2cc(C(=O)O)ccn2)cc1Cl` [Example 95, 2-[5-[(3-chloro-4-ethylphenyl)methoxy]pyrazol-1-yl]pyridine-4-carboxylic acid], the values for the IC50 on JMJD2C, on Jarid1A and against Jarid1B were 100 to 1000 nM, less than 100 nM and less than 100 nM, respectively.
`CCc1ccc(COc2ccnn2-c2cc(C(=O)O)ccn2)cc1F` [Example 96, 2-[5-[(4-ethyl-3-fluorophenyl)methoxy]pyrazol-1-yl]pyridine-4-carboxylic acid]: the IC50 was 100 to 1000 nM at JMJD2C, less than 100 nM against Jarid1A and less than 100 nM against Jarid1B.
As to `O=C(O)c1ccnc(-n2nccc2OCc2ccc(F)c(Cl)c2)c1` [Example 76, 2-{5-[(3-chloro-4-fluorobenzyl)oxy]-1H-pyrazol-1-yl}pyridine-4-carboxylic acid], the IC50 on JMJD2C, at Jarid1A and at Jarid1B was less than 100 nM in each case.
For the compound `O=C(O)c1ccnc(-n2nccc2OC2CCCc3cc(Cl)ccc32)c1` (stereo not drawn) [Example 149, 2-[5-[(6-chloro-1,2,3,4-tetrahydronaphthalen-1-yl)oxy]pyrazol-1-yl]pyridine-4-carboxylic acid], the half-inhibitory concentration (IC50) on JMJD2C was 1000 to 10000 nM; against Jarid1A, 100 to 1000 nM; against Jarid1B, less than 100 nM.
Regarding `O=C(O)c1ccnc(-n2nccc2OCc2ccc(Cl)cc2Cl)c1` [Example 88, 2-[5-[(2,4-dichlorophenyl)methoxy]pyrazol-1-yl]pyridine-4-carboxylic acid], the IC50 was 100 to 1000 nM against JMJD2C, less than 100 nM on Jarid1A and less than 100 nM against Jarid1B.
Consider `O=C(O)c1ccnc(-n2ncc(CCO)c2OCc2ccc(F)cc2)c1` [Example 109, 2-[5-[(4-fluorophenyl)methoxy]-4-(2-hydroxyethyl)pyrazol-1-yl]pyridine-4-carboxylic acid], for which the figures for the IC50 against JMJD2C, against Jarid1A and against Jarid1B were 1000 to 10000 nM, less than 100 nM and less than 100 nM, respectively.
On to `O=C(O)c1ccnc(-n2nccc2OCc2ccc(C3CC3)cc2)c1` [Example 77, 2-{5-[(4-cyclopropylbenzyl)oxy]-1H-pyrazol-1-yl}pyridine-4-carboxylic acid], for which the half-maximal inhibitory concentration (IC50) against JMJD2C was 100 to 1000 nM; at Jarid1A, less than 100 nM; against Jarid1B, less than 100 nM.
For the compound `O=C(O)c1ccnc(-n2nccc2OCc2cccc(F)c2)c1` [Example 41, 2-{5-[(3-fluorobenzyl)oxy]-1H-pyrazol-1-yl}pyridine-4-carboxylic acid], the IC50 on JMJD2C, against Jarid1A and against Jarid1B was less than 100 nM in each case.
With `COc1cc(-c2ccnn2-c2cc(C(=O)O)ccn2)ccc1Cl` [Example 22, 2-(5-(4-chloro-3-methoxyphenyl)-1H-pyrazol-1-yl)isonicotinic acid], the half-inhibitory concentration (IC50) against JMJD2C lay within 1000 to 10000 nM; on Jarid1A, 100 to 1000 nM; against Jarid1B, 100 to 1000 nM.
As for `O=C(O)c1ccnc(-n2nccc2-c2ccc(Br)cc2)c1` [Example 46, 2-[5-(4-bromophenyl)-1H-pyrazol-1-yl]pyridine-4-carboxylic acid], the IC50 on JMJD2C was 1000 to 10000 nM; on Jarid1A it was 100 to 1000 nM; on Jarid1B, 100 to 1000 nM.
In the case of `COc1cc(Cl)ccc1COc1ccnn1-c1cc(C(=O)O)ccn1` [Example 90, 2-[5-[(4-chloro-2-methoxyphenyl)methoxy]pyrazol-1-yl]pyridine-4-carboxylic acid], the IC50 at JMJD2C, against Jarid1A and at Jarid1B was less than 100 nM throughout.
For `CCc1cc(C#N)ccc1COc1ccnn1-c1cc(C(=O)O)ccn1` [Example 126, 2-[5-[(4-cyano-2-ethylphenyl)methoxy]pyrazol-1-yl]pyridine-4-carboxylic acid], the figures for the IC50 at JMJD2C, at Jarid1A and against Jarid1B were 100 to 1000 nM, less than 100 nM and less than 100 nM, respectively.
With `Cc1cc(I)ccc1COc1ccnn1-c1cc(C(=O)O)ccn1` [Example 144, 2-[5-[(4-iodo-2-methylphenyl)methoxy]pyrazol-1-yl]pyridine-4-carboxylic acid], the 50% inhibitory concentration (IC50) is 100 to 1000 nM against JMJD2C, less than 100 nM against Jarid1A and less than 100 nM against Jarid1B.
In the case of `O=C(O)c1ccnc(-n2nccc2OCc2ccc(F)c(F)c2)c1` [Example 52, 2-{5-[(3,4-difluorobenzyl)oxy]-1H-pyrazol-1-yl}pyridine-4-carboxylic acid], the IC50 on JMJD2C was 100 to 1000 nM; against Jarid1A, less than 100 nM; on Jarid1B it was less than 100 nM.
Regarding `O=C(O)c1ccnc(-n2nccc2OC2CCc3cc(F)ccc32)c1` (stereo not drawn) [Example 146, 2-[5-[(5-fluoro-2,3-dihydro-1H-inden-1-yl)oxy]pyrazol-1-yl]pyridine-4-carboxylic acid], the IC50 on JMJD2C, against Jarid1A and against Jarid1B was 100 to 1000 nM in each case.
For `CS(=O)(=O)c1ccc(-c2ccnn2-c2cc(C(=O)O)ccn2)cc1` [Example 19, 2-(5-(4-(methylsulfonyl)phenyl)-1H-pyrazol-1-yl)isonicotinic acid], the IC50 was in the range of 1000 to 10000 nM against JMJD2C, 100 to 1000 nM at Jarid1A and 100 to 1000 nM at Jarid1B.
Turning to `CN(CCc1cnn(-c2cc(C(=O)NC#N)ccn2)c1)Cc1ccc(F)cc1` [Example 157, N-cyano-2-[4-[2-[(4-fluorophenyl)methyl-methylamino]ethyl]pyrazol-1-yl]pyridine-4-carboxamide], the IC50 against JMJD2C, on Jarid1A and against Jarid1B was less than 100 nM in each case.
As for `COc1ccc(COc2ccnn2-c2cc(C(=O)O)ccn2)cc1` [Example 43, 2-{5-[(4-methoxybenzyl)oxy]-1H-pyrazol-1-yl}pyridine-4-carboxylic acid], the IC50 was 100 to 1000 nM against JMJD2C, less than 100 nM against Jarid1A and less than 100 nM on Jarid1B.
Consider `COc1cc(I)ccc1COc1ccnn1-c1cc(C(=O)O)ccn1` [Example 145, 2-[5-[(4-iodo-2-methoxyphenyl)methoxy]pyrazol-1-yl]pyridine-4-carboxylic acid], for which the half-inhibitory concentration (IC50) at JMJD2C was 100 to 1000 nM; on Jarid1A it was less than 100 nM; at Jarid1B, less than 100 nM.
Take `O=C(O)c1ccnc(-n2nccc2-c2cccc(F)c2)c1` [Example 16, 2-(5-(3-fluorophenyl)-1H-pyrazol-1-yl)isonicotinic acid]: the IC50 against JMJD2C, against Jarid1A and against Jarid1B was 100 to 1000 nM each time.
As for `Cc1cc(OCc2ccccc2)n(-c2cc(C(=O)O)ccn2)n1` [Example 38, 2-(5-(benzyloxy)-3-methyl-1H-pyrazol-1-yl)isonicotinic acid], the 50% inhibitory concentration (IC50) against JMJD2C is 100 to 1000 nM; at Jarid1A, 100 to 1000 nM; at Jarid1B, less than 100 nM.
With `CCc1ccc(COc2ccnn2-c2cc(C(=O)O)ccn2)c(F)c1` [Example 151, 2-[5-[(4-ethyl-2-fluorophenyl)methoxy]pyrazol-1-yl]pyridine-4-carboxylic acid], the half-maximal inhibitory concentration (IC50) against JMJD2C was 1000 to 10000 nM; on Jarid1A it was 100 to 1000 nM; against Jarid1B, less than 100 nM.
In the case of `Cc1ccnn1-c1cc(C(=O)O)ccn1` [Example 31, 2-(5-methyl-1H-pyrazol-1-yl)isonicotinic acid], the values for the 50% inhibitory concentration (IC50) at JMJD2C, against Jarid1A and on Jarid1B were 100 to 1000 nM, 1000 to 10000 nM and 1000 to 10000 nM, respectively.

As usually defined, the IC50 is the concentration that gives 50% inhibition. The low end stands for inhibition by little substance, the high end for a need for much substance.

Values taken from US9604961B2, “Histone demethylase inhibitors” (Celgene Quanticel Research, Inc., priority 2012, dated 2017).
